Experimental data taken from patent US20180185332A1, “Leukotriene Receptor Antagonists and Their Derivatives for Use as Antibacterial Agents” (University of East London, priority 2013, published 2018).
Values after ≈ are worked out from the molar mass of the structure shown.

Experiments:
[1] = test system: Staphylococcus aureus; test: Minimum inhibitory concentration (MIC) in broth; assay type: cell-based; conditions: 10^5 cfu/mL, overnight at 37° C., no visible growth
Protocol: (§1) Zafirlukast (Sigma Aldrich, UK) was resuspended in Dimethyl Sulfoxide to a concentration of 16 mM. A minimum inhibitory concentration (MIC) was conducted using various bacterial broth solutions containing between the 0 and 4 mM zafirlukast. 10^5 cfu/mL of test organism was added to each tube before incubation overnight at 37° C. The MIC was taken to be the concentration at which no visible growth was observed. In addition, zone inhibition studies were carried out using standard techniques.
(§2) The bacterial species tested included Staphylococcus aureus, methicillin resistant Staphylococcus aureus, Enterococcus faecalis, Bacillus subtilis, Streptococcus pneumoniae, and Clostridium difficile.
(§3) MIC is well known to the skilled person and is defined as the lowest concentration of agent which prevents visible growth of the bacterial strain under investigation.

[2] = test system: Bacillus subtilis; test: Minimum inhibitory concentration (MIC) in broth; assay type: cell-based; conditions: 10^5 cfu/mL, overnight at 37° C., no visible growth
Protocol: as §1, §2, §3

[3] = test system: MRSA; test: Minimum inhibitory concentration (MIC) in broth; assay type: cell-based, methicillin resistant Staphylococcus aureus; conditions: Staphylococcus aureus, 10^5 cfu/mL, overnight at 37° C., no visible growth
Protocol: as §1, §2, §3

[4] = in vivo, po; cited from earlier work
[5] = test system: E. coli; conditions: Pinault et al 2013; cited from earlier work
[6] = test system: Mycobacterium tuberculosis; conditions: Pinault et al 2013; cited from earlier work
[7] = test system: S. aureus; test: Bactericidal activity, viable counts (percentage survival); assay type: cell-based; conditions: 3 hrs at 37° C., FIG. 2
Protocol: (§4) 10^5 cfu/mL of bacterial culture was incubated in the presence of various concentrations of zafirlukast for a period of 3 hrs at 37° C. At the end of this incubation, viable counts were taken and results recoded as percentage survival (as compared to the drug free control).

[8] = test system: B. subtilis; test: as above; assay type: cell-based; conditions: 3 hrs at 37° C., FIG. 2
Protocol: as §4

[9] = test system: Mycobacterium smegmatis; conditions: Pinault et al 2013; cited from earlier work
[10] = molecular target: Lsr2 (Mycobacterium tuberculosis, UniProt P9WIP7); conditions: Pinault et al 2013; cited from earlier work

SMILES | MIC [1] | MIC [2] | MIC [3] | plasma half-life [4] | effect on the growth of E. coli [5] | growth of Mycobacterium tuberculosis [6] | bactericidal activity [7] | bactericidal activity [8] | bactericidal activity against M. smegmatis [9] | growth of Mycobacterium smegmatis [9] | complexation of Lsr2 with DNA [10]
O=C(O)c1cn(C2CC2)c2cc(N3CCNCC3)c(F)cc2c1=O [Ciprofloxacin] | 3 µM (≈ 0.994 µg/mL) | > 12 µM | 40 µM (≈ 13.3 µg/mL) | – | – | – | – | – | – | – | –
CO/N=C(\C(=O)N[C@@H]1C(=O)N2C(C(=O)O)=C(CSc3nc(=O)c(=O)[nH]n3C)CS[C@H]12)c1csc(N)n1 [Ceftriaxone] | 2 µM (≈ 1.11 µg/mL) | > 29 µM | 22 µM (≈ 12.2 µg/mL) | – | – | – | – | – | – | – | –
COc1cc(C(=O)NS(=O)(=O)c2ccccc2C)ccc1Cc1cn(C)c2ccc(NC(=O)OC3CCCC3)cc12 [Zafirlukast, [3-[2-Methoxy-4-(toluene-2-sulfonylaminocarbonyl)benzyl]-I-methyl-IH-indol-5-yl]carbamic acid cyclopentyl ester] | 30 µM (≈ 17.3 µg/mL) | 6 µM (≈ 3.45 µg/mL) | 6 µM (≈ 3.45 µg/mL) | approximately 10 hours | no effect | inhibits the growth | bactericidal activity | bactericidal activity | exhibits bactericidal activity | inhibits the growth | inhibits the complexation
